According to ChEMBL document CHEMBL1201862, “PubChem BioAssay data set” (2004):
Calls of active or inactive are those of the source.

How the values were obtained:
Type in all cases: functional
[1] = target: Dual specificity mitogen-activated protein kinase kinase 1 (Homo sapiens, UniProt Q02750); experiment: Navigating the Kinome. Panel member name: MAP2K1
[2] = target: Serine/threonine-protein kinase PLK3 (Homo sapiens, UniProt Q9H4B4)
[3] = target: Serine/threonine-protein kinase Chk2 (Homo sapiens, UniProt O96017);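 also: CHEK2 entry within a kinome-wide screening panel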
Chain of Serine/threonine-protein kinase Chk2 (O96017 whole entry): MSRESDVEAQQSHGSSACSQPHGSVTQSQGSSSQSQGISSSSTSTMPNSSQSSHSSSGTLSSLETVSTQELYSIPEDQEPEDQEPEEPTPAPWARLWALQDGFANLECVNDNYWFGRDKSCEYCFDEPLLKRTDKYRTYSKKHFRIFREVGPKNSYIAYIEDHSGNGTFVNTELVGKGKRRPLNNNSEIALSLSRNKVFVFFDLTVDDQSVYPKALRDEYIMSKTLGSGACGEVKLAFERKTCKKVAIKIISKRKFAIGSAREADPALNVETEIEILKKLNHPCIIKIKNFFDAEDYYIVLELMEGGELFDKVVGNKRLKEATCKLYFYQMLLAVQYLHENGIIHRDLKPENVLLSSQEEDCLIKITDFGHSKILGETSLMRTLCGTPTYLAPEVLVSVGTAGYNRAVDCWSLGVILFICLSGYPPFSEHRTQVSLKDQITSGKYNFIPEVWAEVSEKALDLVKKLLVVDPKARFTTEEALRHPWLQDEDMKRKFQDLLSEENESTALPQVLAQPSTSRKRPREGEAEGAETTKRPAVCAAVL

[4] = target: Mitogen-activated protein kinase 8 (Homo sapiens, UniProt P45983);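 also: value comes from one member of a kinome-wide kinase profiling panel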
Chain of Mitogen-activated protein kinase 8 (P45983 whole entry): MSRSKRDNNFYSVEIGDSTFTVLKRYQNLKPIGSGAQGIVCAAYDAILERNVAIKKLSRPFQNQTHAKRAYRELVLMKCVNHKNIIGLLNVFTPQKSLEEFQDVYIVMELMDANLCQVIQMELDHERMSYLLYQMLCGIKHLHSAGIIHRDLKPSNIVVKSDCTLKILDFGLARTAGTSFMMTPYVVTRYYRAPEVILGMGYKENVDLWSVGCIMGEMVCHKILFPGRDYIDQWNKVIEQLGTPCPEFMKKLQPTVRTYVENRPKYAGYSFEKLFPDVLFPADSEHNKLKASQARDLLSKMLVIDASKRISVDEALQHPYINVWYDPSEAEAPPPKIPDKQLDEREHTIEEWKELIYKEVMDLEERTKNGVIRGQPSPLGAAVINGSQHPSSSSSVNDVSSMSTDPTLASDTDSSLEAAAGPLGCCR

[5] = target: Tyrosine-protein kinase BTK (Homo sapiens, UniProt Q06187)
Chain of Tyrosine-protein kinase BTK (Q06187 whole entry): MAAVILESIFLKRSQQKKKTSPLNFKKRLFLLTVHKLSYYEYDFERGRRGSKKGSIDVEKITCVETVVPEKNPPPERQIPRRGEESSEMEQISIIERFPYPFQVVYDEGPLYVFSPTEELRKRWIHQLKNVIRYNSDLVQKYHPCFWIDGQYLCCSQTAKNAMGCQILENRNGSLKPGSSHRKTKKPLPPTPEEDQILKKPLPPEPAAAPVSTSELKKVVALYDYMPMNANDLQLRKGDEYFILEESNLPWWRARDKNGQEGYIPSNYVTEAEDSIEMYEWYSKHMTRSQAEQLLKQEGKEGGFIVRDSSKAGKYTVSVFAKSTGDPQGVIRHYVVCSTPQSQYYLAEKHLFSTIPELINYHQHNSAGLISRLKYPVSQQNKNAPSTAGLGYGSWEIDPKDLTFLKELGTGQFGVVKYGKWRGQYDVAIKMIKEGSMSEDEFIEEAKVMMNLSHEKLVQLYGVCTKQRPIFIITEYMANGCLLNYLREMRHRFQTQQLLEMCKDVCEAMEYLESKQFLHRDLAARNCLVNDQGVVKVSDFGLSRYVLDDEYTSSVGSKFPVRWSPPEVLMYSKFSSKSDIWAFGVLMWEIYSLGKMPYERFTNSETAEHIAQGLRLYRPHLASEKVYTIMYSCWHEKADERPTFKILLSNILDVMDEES

[6] = target: Glycogen synthase kinase-3 alpha (Homo sapiens, UniProt P49840);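 also: GSK3A result taken from a broad kinome-wide kinase panel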
Chain of Glycogen synthase kinase-3 alpha (P49840 whole entry): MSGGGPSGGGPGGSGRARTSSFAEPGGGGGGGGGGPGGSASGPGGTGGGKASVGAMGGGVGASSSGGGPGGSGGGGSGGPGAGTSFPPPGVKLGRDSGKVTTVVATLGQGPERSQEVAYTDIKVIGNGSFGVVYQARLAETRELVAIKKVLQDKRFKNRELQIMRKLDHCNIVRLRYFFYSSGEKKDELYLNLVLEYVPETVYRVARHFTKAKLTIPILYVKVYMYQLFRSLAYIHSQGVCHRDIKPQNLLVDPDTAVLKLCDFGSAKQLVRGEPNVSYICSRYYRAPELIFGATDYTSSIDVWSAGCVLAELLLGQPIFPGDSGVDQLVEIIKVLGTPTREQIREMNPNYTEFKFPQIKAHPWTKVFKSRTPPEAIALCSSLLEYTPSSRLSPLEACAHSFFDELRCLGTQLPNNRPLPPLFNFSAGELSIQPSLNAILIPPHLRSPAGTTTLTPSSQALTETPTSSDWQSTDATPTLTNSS

[7] = target: T1, Dual specificity tyrosine-phosphorylation-regulated kinase 3 (Homo sapiens, UniProt O43781);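 also: measured as one member of a broad kinase panel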
T1 sequence (O43781 whole entry): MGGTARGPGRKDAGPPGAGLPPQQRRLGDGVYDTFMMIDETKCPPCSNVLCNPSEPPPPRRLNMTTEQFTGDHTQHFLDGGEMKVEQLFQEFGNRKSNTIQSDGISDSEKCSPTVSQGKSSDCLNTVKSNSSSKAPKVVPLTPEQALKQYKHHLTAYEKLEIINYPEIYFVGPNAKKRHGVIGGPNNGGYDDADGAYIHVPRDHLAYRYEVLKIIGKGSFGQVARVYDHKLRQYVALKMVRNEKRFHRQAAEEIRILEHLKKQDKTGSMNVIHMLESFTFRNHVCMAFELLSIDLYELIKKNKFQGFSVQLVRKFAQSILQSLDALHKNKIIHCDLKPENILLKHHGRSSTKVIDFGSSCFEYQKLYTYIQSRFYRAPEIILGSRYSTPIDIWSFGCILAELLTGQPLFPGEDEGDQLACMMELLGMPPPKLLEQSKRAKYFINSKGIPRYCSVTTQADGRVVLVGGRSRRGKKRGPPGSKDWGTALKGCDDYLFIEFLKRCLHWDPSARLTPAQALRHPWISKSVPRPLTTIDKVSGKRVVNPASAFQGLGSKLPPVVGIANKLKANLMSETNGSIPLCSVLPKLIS

[8] = target: T2, Receptor-type tyrosine-protein kinase FLT3 (Homo sapiens, UniProt P36888);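 also: FLT3 was tested as one member of a kinome-wide kinase panel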
T2 sequence (P36888 whole entry): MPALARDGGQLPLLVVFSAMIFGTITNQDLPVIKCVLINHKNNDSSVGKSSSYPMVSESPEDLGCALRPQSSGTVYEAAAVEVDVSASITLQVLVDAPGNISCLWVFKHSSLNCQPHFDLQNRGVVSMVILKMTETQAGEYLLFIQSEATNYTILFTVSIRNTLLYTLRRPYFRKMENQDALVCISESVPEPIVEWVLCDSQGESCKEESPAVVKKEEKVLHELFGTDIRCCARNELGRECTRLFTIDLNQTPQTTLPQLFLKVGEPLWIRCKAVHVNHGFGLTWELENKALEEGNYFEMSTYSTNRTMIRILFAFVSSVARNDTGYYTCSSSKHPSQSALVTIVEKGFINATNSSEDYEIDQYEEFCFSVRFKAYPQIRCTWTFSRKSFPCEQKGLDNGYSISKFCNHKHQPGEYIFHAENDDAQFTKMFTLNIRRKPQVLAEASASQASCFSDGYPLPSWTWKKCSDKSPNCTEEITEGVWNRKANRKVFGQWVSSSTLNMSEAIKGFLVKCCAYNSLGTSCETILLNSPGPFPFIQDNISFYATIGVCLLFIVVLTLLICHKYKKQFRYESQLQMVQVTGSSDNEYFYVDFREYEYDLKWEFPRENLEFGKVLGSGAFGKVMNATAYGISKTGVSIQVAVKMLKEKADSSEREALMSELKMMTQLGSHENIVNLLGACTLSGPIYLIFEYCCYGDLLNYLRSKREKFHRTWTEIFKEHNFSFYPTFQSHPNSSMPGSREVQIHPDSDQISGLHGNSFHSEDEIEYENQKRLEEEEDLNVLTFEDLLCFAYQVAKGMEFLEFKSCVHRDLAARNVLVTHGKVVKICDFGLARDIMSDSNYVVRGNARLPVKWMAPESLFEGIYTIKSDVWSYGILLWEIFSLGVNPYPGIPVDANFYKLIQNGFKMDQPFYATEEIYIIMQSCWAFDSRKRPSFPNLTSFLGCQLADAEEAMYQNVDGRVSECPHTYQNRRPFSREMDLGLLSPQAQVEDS

[9] = target: T3, Homeodomain-interacting protein kinase 4 (Homo sapiens, UniProt Q8NE63)
T3 sequence (Q8NE63 whole entry): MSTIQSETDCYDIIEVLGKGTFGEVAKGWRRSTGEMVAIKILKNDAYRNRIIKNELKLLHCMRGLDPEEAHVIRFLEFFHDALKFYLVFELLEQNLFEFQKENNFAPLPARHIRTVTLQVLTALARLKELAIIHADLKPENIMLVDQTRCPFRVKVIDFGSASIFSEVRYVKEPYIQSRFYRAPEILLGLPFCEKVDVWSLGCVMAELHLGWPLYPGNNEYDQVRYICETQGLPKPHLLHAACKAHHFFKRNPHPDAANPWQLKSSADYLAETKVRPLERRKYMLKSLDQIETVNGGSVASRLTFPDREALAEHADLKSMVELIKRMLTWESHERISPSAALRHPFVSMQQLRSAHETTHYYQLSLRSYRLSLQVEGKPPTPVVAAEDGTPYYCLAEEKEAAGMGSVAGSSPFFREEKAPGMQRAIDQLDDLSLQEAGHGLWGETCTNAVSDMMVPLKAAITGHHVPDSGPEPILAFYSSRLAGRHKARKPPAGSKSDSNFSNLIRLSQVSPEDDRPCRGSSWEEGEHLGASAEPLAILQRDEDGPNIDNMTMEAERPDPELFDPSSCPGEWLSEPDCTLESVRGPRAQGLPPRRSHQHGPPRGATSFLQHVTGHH

Chain of Dual specificity mitogen-activated protein kinase kinase 1 (Q02750 whole entry): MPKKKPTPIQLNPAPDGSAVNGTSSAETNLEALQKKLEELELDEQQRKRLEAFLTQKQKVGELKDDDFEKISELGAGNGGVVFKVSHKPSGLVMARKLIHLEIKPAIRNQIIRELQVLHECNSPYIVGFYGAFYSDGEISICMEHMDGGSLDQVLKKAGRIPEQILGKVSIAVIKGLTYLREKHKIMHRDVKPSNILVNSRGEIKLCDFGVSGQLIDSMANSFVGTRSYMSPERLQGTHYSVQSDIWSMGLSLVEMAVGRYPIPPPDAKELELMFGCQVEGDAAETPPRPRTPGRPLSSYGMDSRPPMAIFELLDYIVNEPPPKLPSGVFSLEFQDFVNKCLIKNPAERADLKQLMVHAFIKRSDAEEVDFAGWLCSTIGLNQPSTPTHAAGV
Chain of Serine/threonine-protein kinase PLK3 (Q9H4B4 whole entry): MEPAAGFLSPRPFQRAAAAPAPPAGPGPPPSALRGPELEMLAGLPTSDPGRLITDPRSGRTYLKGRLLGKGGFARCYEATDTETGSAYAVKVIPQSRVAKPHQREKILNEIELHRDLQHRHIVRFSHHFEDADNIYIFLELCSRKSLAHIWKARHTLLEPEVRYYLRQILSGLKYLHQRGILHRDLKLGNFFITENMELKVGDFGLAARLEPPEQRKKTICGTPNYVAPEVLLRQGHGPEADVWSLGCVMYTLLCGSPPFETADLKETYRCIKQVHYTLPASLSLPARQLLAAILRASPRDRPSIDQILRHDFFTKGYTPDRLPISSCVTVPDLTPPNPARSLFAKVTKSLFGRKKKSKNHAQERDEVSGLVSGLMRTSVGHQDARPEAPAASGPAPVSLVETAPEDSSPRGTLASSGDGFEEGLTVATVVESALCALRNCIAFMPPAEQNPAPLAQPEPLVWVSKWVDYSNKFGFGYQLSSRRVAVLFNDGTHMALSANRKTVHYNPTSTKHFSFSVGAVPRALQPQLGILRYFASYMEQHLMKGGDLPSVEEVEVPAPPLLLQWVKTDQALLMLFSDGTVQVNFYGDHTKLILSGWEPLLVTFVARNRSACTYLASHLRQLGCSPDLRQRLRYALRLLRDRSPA

Row | pKi [1] | Ki [2] | Ki [3] | pKi [3] | Ki [4] | pKi [4] | Ki [5] | Ki [6] | pKi [6] | Ki [7] | pKi [7] | Ki [8] | Ki [9] | pKi [9] | SMILES | Ki [1]
1 | 5.7 | > 7.94 µM (inactive) | 1.26 µM (active) | 5.9 | 0.398 µM (active) | 6.4 | > 1.26 µM (inactive) | 0.00631 µM (active) | 8.2 | 0.01 µM (active) | 8 | > 1.26 µM (inactive) | 0.398 µM (active) | 6.4 | NC(=O)c1cc(-c2ccnc(N)n2)[nH]c1-c1ccc(Cl)cc1Cl | 2 µM (active)
2 |  | 0.501 µM (active) | 0.0501 µM (active) |  | 0.316 µM (active) |  | 0.501 µM (active) | 0.398 µM (active) |  | 0.00794 µM (active) |  | 0.0316 µM (active) | 0.0631 µM (active) |  | NC(COc1cncc(-c2ccc3c(c2)C(=Cc2ccco2)C(=O)N3)c1)Cc1c[nH]c2ccccc12 (centres undefined) | 
3 |  |  |  |  |  |  |  |  |  |  |  |  |  |  | Cc1ccc(-n2nc(C(C)(C)C)cc2NC(=O)Nc2ccc(OCCN3CCOCC3)c3ccccc23)cc1 [DORAMAPIMOD] | > 3.16 µM (inactive)
